From ChEMBL document CHEMBL5120901, “Batatasin III, a Constituent of Dendrobium scabrilingue, Improves Murine Pain-like Behaviors with a Favorable CNS Safety Profile” (J Nat Prod, 2022)
Calls of active or inactive are those of the source.

How the values were obtained:
Assay type in all cases: functional, cell-based
[1] = system: BV-2; test: Anti-inflammartory activity against LPS-activated […] cells assessed as reduction in IL-6 levels at 50 uM pretreated with compound for 1 hr followed by co-incubation with LPS for 24 hrs by ELISA; conditions: Mus musculus, time 25.0 hrs
[2] = system: BV-2; test: Anti-inflammatory activity in […] cells assessed as inhibition of LPS-induced NO production at 50 uM pretreated with compound for 1 hr followed by coincubation with LPS for 24 hrs by Griess reagent based analysis; conditions: Mus musculus, time 25.0 hrs
[3] = system: BV-2; test: Anti-inflammartory activity against LPS-activated […] cells assessed as reduction in TNF-alpha levels at 50 uM pretreated with compound for 1 hr followed by co-incubation with LPS for 24 hrs by ELISA; conditions: Mus musculus, time 25.0 hrs
[4] = system: RAW264.7; test: Anti-inflammartory activity against LPS-activated mouse RAW264.7 cells assessed as reduction in TNF-alpha levels at 50 uM pretreated with compound for 1 hr followed by incubation with LPS for 12 hrs by ELISA; conditions: time 13.0 hrs
[5] = system: RAW264.7; test: Anti-inflammartory activity against LPS-activated mouse RAW264.7 cells assessed as reduction in IL-6 levels at 50 uM pretreated with compound for 1 hr followed by incubation with LPS for 12 hrs by ELISA; conditions: time 13.0 hrs
[6] = system: RAW264.7; test: Anti-inflammartory activity in mouse RAW264.7 cells assessed as inhibition of LPS-induced NO production at 50 uM pretreated with compound for 1 hr followed by incubation with LPS for 12 hrs by Griess reagent based analysis; conditions: time 13.0 hrs

Measured: Activity

CN(C)c1ccc(O)c2c1C[C@H]1C[C@H]3[C@H](N(C)C)C(O)=C(C(N)=O)C(=O)[C@@]3(O)C(O)=C1C2=O
active: [1] | [2] | [3]

C[C@@H]1C[C@H]2[C@@H]3CCC4=CC(=O)C=C[C@]4(C)[C@@]3(F)[C@@H](O)C[C@]2(C)[C@@]1(O)C(=O)CO
active: [4] | [5] | [6]
